Experimental data published in the NIST ThermoML archive (doi:10.1021/acs.jced.5b00260).

Test: mn = molality of the nth substance listed, in mol/kg
Settings: 100 kPa, Liquid, Vibrating tube method

C[C@H](N)C(=O)O [(S)-2-aminopropanoic acid] + O
mass density [kg/m3]
Settings | m1 = 0.1 | m1 = 0.2 | m1 = 0.3 | m1 = 0.4
298.2 K | 999.9 | 1002.7 | 1005.5 | 1008.2
303.2 K | 998.4 | 1001.9 | 1004.1 | 1006.8
308.2 K | 996.8 | 1000.1 | 1002.3 | 1004.1
